One molecule from patent publication US20110159603A1, “FLUORESCENT PROBE SPECIFIC TO HYDROGEN PEROXIDE” (THE UNIVERSITY OF TOKYO, priority 2008, published 2011) can be followed below.

Assay [1] in a line: Relative fluorescence intensity at 520 nm on adding other reactive oxygen species. The note with it: hydroxyl radical 10 μM, peroxynitrite 10 μM, hypochlorite ion 10 μM, NOC13 100 μM or EP-1 100 μM; compound 1 μM; excitation 490 nm. As to the method: (§1) The addition of hydroxyl radical (10 μM) to the test system was performed by the method of adding hydrogen peroxide (10 μM) to a solution of Compound 5, and then immediately adding a solution of iron(II) perchlorate (10 μM) in purified water to the mixture to generate hydroxyl radicals by the Fenton reaction.

In the next assay the test system is RAW264.7 cells. Briefly: Detection of hydrogen peroxide in live cells by fluorescence microscopy. The class given is cell-based. Conditions: RAW264.7 cells stimulated with LPS 50 μg/ml and IFN-γ 100 unit/ml for 12 hours vs non-stimulated; observed 2 hours after loading; excitation 470 to 495 nm, fluorescence 510 to 550 nm. The protocol: It was confirmed that Compound 5 was also usable for detection of hydrogen peroxide in live cells. The RAW264.7 cells were stimulated with a lipopolysaccharide (LPS, 50 μg/ml) and interferon-γ (IFN-γ, 100 unit/ml) for 12 hours, then a diacetylated compound of Compound 5 was loaded on the cells, and 2 hours later, the cells were observed under a fluorescence microscope using the U-MNIBA2 filter set produced by Olympus Corporation (excitation wavelength: 470 to 495 nm, fluorescence wavelength: 510 to 550 nm) (FIG. 2).

Assay [2] is described as follows: Relative fluorescence intensity with superoxide from hypoxanthine/xanthine oxidase (HPX/x.o.) system. Conditions: compound 10 μM.
A short description of assay [3]: Fluorescence spectrum change on adding hydrogen peroxide. Conditions: excitation 490 nm. The protocol:
[The source words this procedure for another target and reports this target under the same test.] as §1

Regarding `N#Cc1ccc(C(=O)C(=O)c2ccc(-c3c4ccc(=O)cc-4oc4cc(O)ccc34)c(C(=O)O)c2)cc1` [Compound 5, 5-(4-cyanobenzoyl)carbonylfluorescein], the “relative fluorescence intensity at 520 nm” value in assay [1] is reported as “no increase of fluorescence intensity”; in assay [2] (HPX/x.o. system with SOD 60 Unit/L added) it was “no significant change in the degree of the increase of fluorescence intensity”; in assay [2] (HPX/x.o. system with catalase 100 Unit/L added) it was “reduced to around the level of the control”; in assay [2] (superoxide 10 μM, HPX/x.o. system (x.o. 2.38 mUnit/L, HPX 10 μM), versus control), “higher in the case using the HPX/x.o. system than in the case of the control”; in assay [3] (hydrogen peroxide 100 μM for 30 minutes, compound 1 μM), “increase of fluorescence intensity was observed only when hydrogen peroxide was added”. Besides, in the assay with RAW264.7 cells, the “fluorescence intensity in cells” value was “higher when loading Compound 5 on the stimulated cells (B) than on the non-stimulated cells (A)”. In addition, the “change of the fluorescence spectrum over time” value in assay [3] (hydrogen peroxide 100 μM added to compound 1 μM, after 5, 15, 30 and 60 minutes) is “increase of fluorescence intensity was observed over time”.
